The target in the assay is T1, FTO (Mus musculus, UniProt Q8BGW1).
T1 construct: His tag (pET-28a) with peptide linker (N); made in house; host or cells: E. coli BL21-Gold(DE3)
Kind of assay: 2-oxoglutarate decarboxylation (uncoupled 2-OG turnover) assay with purified FTO. Format: biochemical. The procedure:
FTO was incubated with all necessary cofactors, in various buffers lacking a specific reagent (Fe^2+, ascorbate or DTT) and in the presence of N-oxalyl-glycine (NOG), a generic Fe^2+-2OG-dioxygenase inhibitor at a concentration of 0.5 mM. In addition to Fe^2+ (added in the form of (NH4)2Fe(II)(SO4)2) and 2OG, dithiothreitol (DTT) and sodium ascorbate were added to the reaction mixture: DTT is a reducing agent that helps to maintain Fe^2+.
These were diluted to a total volume of 100 μl with 50 mM TRIS, pH 7.5. All reagents were mixed and pipetted into a 5 ml plastic screw cap tube, the FTO was added to the tube as a separate drop. A 500 μl Eppendorf tube containing 200 μl Hyamine hydroxide (Fisher Scientific, CO2 trapping agent) was added to each tube and tubes were closed with a rubber septum. After incubation in an environmental shaker at 37° C. for half an hour, 200 μl methanol was added to the contents and the tubes were put on ice for 30 minutes to quench the reaction. The Eppendorf tubes containing the hyamine hydroxide were transferred to scintillation vials, mixed with 5 ml OptiPhase Liquid Scintillation Cocktail (Fisher Scientific) and total ^14C counts quantified using a Beckman L56500 Multi-Purpose Scintillation Counter.

T1 sequence (Q8BGW1 whole entry): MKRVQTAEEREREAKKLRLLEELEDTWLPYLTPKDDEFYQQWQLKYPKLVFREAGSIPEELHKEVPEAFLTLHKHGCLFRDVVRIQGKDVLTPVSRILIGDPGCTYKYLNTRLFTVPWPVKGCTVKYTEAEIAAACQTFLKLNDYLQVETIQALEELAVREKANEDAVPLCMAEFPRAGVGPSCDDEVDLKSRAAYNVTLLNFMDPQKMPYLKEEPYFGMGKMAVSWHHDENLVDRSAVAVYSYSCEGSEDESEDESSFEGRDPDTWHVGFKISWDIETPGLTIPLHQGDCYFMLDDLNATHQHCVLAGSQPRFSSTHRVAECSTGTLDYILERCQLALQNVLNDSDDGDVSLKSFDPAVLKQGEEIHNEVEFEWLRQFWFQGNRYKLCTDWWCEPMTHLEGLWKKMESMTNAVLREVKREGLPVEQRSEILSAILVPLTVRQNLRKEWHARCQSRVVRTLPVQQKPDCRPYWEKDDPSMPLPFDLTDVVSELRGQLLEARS

For `O=S(=O)([O-])[O-].[Fe+2]` [FeSO4], the “Stimulation of FTO 2-OG turnover activity” value (uncoupled turnover) is recorded as “stimulated”. `O=C(O)C(=O)N[C@H](Cc1ccccc1)C(=O)O` [NOFD, N-oxalyl D-phenylalanine]: the “Inhibition of FTO 2-OG turnover (uncoupled)” value (no methylated DNA substrate) is on record as “did not inhibit”.

These data come from patent US8445224B2, “Method for assaying FTO (2-oxoglutarate dependent oxygenase) activity” (Isis Innovation Limited, priority 2007, dated 2013).
